Our source for the IC50 and remaining activity values is paper PMC7356228, “Alvaxanthone, a Thymidylate Synthase Inhibitor with Nematocidal and Tumoricidal Activities” (Molecules, 2020).

Assay in all cases: Inhibition of TS-catalyzed reaction (tritium release from [5-3H]dUMP)
The target of one experiment is TsTS (Trichinella spiralis, UniProt Q9NDD3). Type of experiment: biochemical, T. spiralis. Conditions: 20 µM dUMP, 250 µM meTHF; for IC50: IC50 Assessment; for remaining activity at 1000 µM: compound 1000 µM; for remaining activity at 100 µM: compound 100 µM. An excerpt: (§1) The recombinant human, rat, mouse, T. spiralis and C. elegans TS proteins were produced, purified and separated into phosphorylated and non-phosphorylated fraction, as previously described. TS activity was monitored, following tritium release from [5-^3H]dUMP, and its inhibition studied as earlier reported.
Chain of TsTS (Q9NDD3 entry or part of it): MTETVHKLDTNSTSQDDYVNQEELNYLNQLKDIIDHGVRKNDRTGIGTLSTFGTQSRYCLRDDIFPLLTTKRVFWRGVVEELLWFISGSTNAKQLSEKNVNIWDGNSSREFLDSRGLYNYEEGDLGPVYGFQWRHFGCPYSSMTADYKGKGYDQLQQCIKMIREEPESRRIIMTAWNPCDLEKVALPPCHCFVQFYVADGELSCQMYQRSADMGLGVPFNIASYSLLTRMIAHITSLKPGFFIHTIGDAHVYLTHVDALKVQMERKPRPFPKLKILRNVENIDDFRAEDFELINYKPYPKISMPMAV

The target in the next experiment is T1, hTS (Homo sapiens, UniProt P04818).
T1 construct: made in house
T1 sequence (P04818 whole entry): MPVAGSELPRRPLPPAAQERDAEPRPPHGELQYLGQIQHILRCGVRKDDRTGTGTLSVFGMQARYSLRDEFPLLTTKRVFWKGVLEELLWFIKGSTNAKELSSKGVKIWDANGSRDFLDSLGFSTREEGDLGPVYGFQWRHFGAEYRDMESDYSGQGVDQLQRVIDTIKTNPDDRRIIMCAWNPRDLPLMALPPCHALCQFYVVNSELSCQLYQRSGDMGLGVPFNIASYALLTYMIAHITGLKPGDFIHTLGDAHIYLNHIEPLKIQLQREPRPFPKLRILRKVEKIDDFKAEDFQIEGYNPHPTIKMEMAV
Type of experiment: biochemical. The following applies: for IC50: read-out: IC50 Assessment.
Source text: as §1

In a further experiment the target is T2, mTS (Mus musculus, UniProt P07607).
T2 construct: made in house
T2 sequence (P07607 whole entry): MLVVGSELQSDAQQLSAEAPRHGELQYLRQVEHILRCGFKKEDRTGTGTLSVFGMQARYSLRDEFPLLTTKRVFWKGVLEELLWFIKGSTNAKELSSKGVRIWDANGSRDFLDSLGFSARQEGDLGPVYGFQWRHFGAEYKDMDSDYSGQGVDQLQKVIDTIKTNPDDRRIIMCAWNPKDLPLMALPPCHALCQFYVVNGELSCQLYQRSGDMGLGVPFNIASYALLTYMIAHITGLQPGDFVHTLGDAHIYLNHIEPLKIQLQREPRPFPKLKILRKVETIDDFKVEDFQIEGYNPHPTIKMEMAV
Type of experiment: biochemical. The following applies: for remaining activity at 100 µM: compound 100 µM.
Source text: as §1

A further experiment concerns the target T3, CeTS (Caenorhabditis elegans, UniProt Q9Y052).
T3 sequence (Q9Y052 1-315): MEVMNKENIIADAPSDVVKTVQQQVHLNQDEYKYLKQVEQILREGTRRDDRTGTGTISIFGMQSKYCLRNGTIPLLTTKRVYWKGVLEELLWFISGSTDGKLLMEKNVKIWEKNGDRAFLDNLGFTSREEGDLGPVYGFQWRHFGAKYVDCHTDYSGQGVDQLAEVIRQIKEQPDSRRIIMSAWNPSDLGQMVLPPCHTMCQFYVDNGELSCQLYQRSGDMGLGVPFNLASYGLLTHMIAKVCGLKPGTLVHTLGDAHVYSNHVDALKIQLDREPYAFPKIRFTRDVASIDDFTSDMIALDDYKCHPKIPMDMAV
Type of experiment: biochemical, C. elegans.
Source text: as §1

Setting [1] is: compound 100 µM, 20 µM dUMP, 250 µM meTHF, read-out: % Remaining Activity.
The mark [2] stands for this setting: compound 1000 µM, 20 µM dUMP, 250 µM meTHF, read-out: % Remaining Activity.
Setting [3] is: IC50 Assessment, 20 µM dUMP, 250 µM meTHF.
The mark [4] stands for this setting: compound 50 µM, 20 µM dUMP, 250 µM meTHF.
[5] abbreviates: compound 500 µM, 20 µM dUMP, 250 µM meTHF.
Where [6] appears, read: 20 µM dUMP, 250 µM meTHF, read-out: % Remaining Activity.
[7] abbreviates: 20 µM dUMP, 250 µM meTHF, read-out: IC50 Assessment.
Setting [8] is: compound 667 µM, 20 µM dUMP, 250 µM meTHF.
Setting [9] is: compound 10 µM, 20 µM dUMP, 250 µM meTHF.

Each structure is given as a SMILES string. Like-named read-outs stand apart in the source and are kept apart here.

As to `CC12CCC3C(C1)c1c(cc(O)c(C(=O)c4ccccc4)c1OC3(C)C)O2` (stereo not shown) [Clusiacitran A (9), Clusiacitran A], the values for the IC50 on TsTS, against mTS (setting [3]) and against CeTS (setting [3]) were more than 1000 µM, more than 1000 µM and more than 100 µM, respectively. In addition, the remaining activity (commonly what remains of the control signal, in per cent) at 1000 µM on TsTS is 95%; on hTS (setting [2]), 47%; at mTS (setting [2]), 62%; on CeTS, 44%. In addition, the remaining activity at 100 µM is 89% at hTS (setting [1]) and 88% on CeTS.
Consider `COc1cc(/C=C/C(=O)CC(=O)/C=C/c2ccc(O)c(OC)c2)ccc1O` [Curcumin (1), Curcumin], for which, at TsTS, the IC50 (commonly the midpoint of a concentration-inhibition curve) was more than 500 µM. Also, the remaining activity at 500 µM is 73% at TsTS (compound 500 µM), 20% at hTS (setting [5]), 37% at mTS (setting [5]) and 30% at CeTS (setting [5]). In addition, the values for the remaining activity at 50 µM on hTS (setting [4]), on mTS (setting [4]) and at CeTS (setting [4]) were 86%, 83% and 84%, respectively.
`CC(=O)Oc1c(O)cc(-c2oc3cc(O)cc(O)c3c(=O)c2O)cc1O` [Myricetin-4′-OAc (7), Myricetin-4′-OAc]: the IC50 was more than 1000 µM against TsTS; more than 1000 µM at hTS (20 µM dUMP, 250 µM meTHF); more than 100 µM on CeTS (setting [7]). Further, the remaining activity at 1000 µM at TsTS is 66%; at hTS (setting [2]) it was 31%; at mTS (setting [2]), 49%; on CeTS (setting [2]), 28%. For the same compound, the remaining activity at 100 µM on hTS (setting [1]) is 56%; at mTS (setting [6]), 61%; at CeTS (setting [1]), 69%.
For `O=C(/C=C/c1ccc(O)c(O)c1)O[C@@H]1C[C@](O)(C(=O)O)C[C@@H](O)[C@H]1O` [Chlorogenic acid (3), Chlorogenic acid], the IC50 at TsTS was more than 1000 µM; on hTS (20 µM dUMP, 250 µM meTHF), more than 1000 µM; on mTS (setting [7]), more than 1000 µM; on CeTS (setting [7]), more than 1000 µM. Besides, the remaining activity at 1000 µM at TsTS stood at 94%; on hTS (setting [2]), 76%; on mTS (setting [2]), 83%; on CeTS (setting [2]), 82%.
For `COC(=O)/C=C/C(C)=C\C=C\C(C)=C\C=C\C=C(C)\C=C\C=C(C)\C=C\C(=O)O` [Bixin (6), Bixin], the remaining activity at 67 µM at TsTS (compound 67 µM) was found to be 76%; at CeTS (compound 67 µM, 20 µM dUMP, 250 µM meTHF) it was 93%. For the same compound, the remaining activity at 667 µM was 47% on TsTS (compound 667 µM); more than 100% at hTS (compound 667 µM (highest obtained concentration), 20 µM dUMP, 250 µM meTHF); 73% at mTS (setting [8]); 46% on CeTS (setting [8]). For the same compound, on mTS (setting [7]), the IC50 was more than 667 µM.
Take `COc1cc(/C=C/C(=O)O[C@H]2[C@H](O[C@@H]3O[C@@H](C)[C@H](O)[C@@H](O)[C@H]3O)[C@@H](O)[C@H](OCCc3ccc(O)c(O)c3)O[C@@H]2CO)ccc1O` [Leucosceptoside A (13), Leucosceptoside A]: the remaining activity at 1000 µM was more than 100% at TsTS, 66% on hTS (setting [2]), 77% on mTS (setting [2]) and 83% on CeTS (setting [2]). Further, the IC50 on hTS (20 µM dUMP, 250 µM meTHF) is more than 1000 µM; at mTS (setting [7]), more than 1000 µM; on CeTS (setting [7]), more than 1000 µM.
As for `O=C(CCc1ccc(O)cc1)c1c(O)cc(O)cc1O` [Phloretin (4), Phloretin], the IC50 on TsTS was more than 1000 µM; at CeTS (setting [7]), more than 100 µM. Further, the remaining activity at 1000 µM at TsTS came out at 61%; at hTS (setting [2]), 31%; at mTS (setting [2]), 45%; at CeTS (setting [2]), 48%. The remaining activity at 100 µM on hTS (setting [1]) was 86%; on mTS (setting [6]), 78%; at CeTS (setting [1]) it was 82%.
In the case of `O=C(OCC1=C[C@@H](O)[C@@H]2C=CO[C@@H](O[C@@H]3O[C@H](CO)[C@@H](O)[C@H](O)[C@H]3O)[C@H]12)c1ccc(O)cc1` [Agnuside (8), Agnuside], the IC50 against TsTS was more than 1000 µM; at mTS (setting [7]), more than 1000 µM; on CeTS (setting [7]) it was more than 100 µM. The remaining activity at 1000 µM on TsTS was determined as 63%; at hTS (setting [2]), 47%; on mTS (setting [2]), 72%; at CeTS (setting [2]) it was 36%. In addition, the remaining activity at 100 µM at hTS (setting [1]) was 90%; on CeTS (setting [1]), 100%.
`COc1c(C2(O)COc3cc(O)cc(O)c3C2=O)ccc2c1C=CC(C)(C)O2` (stereo not shown) [Sophoronol (5), Sophoronol]: the IC50 on TsTS and on CeTS (setting [7]) was more than 100 µM each time. The remaining activity at 100 µM at TsTS is 74%; at hTS (setting [1]), 75%; at mTS (setting [6]), 75%; on CeTS (setting [1]) it was 77%. The remaining activity at 1000 µM was 35% at TsTS, 8% on hTS (setting [2]), 10% on mTS (setting [2]) and 8% at CeTS (setting [2]).
Compound `CC1(C)CCc2cc3c(cc2O1)OC(c1ccccc1)CC3=O` (stereo not shown) [6-Chromane-O-7-flavanone (11), 6-Chromane-O-7-flavanone] came in with an IC50 at TsTS of more than 1000 µM. Also, the results for the remaining activity at 1000 µM on TsTS and at mTS (setting [2]) were 85% and 10%, respectively. The remaining activity at 10 µM at hTS (setting [9]) and on CeTS (setting [9]) was 100% in each case. The values for the remaining activity at 100 µM at hTS (setting [1]), at mTS (setting [6]) and at CeTS (setting [1]) were 37%, 91% and 24%, respectively.
With `CC1=C[C@]2(O)C(=O)[C@H](C)C[C@@H]3[C@H](CC[C@](C)(O)C[C@H]2C1=O)C3(C)C` [Jatrowediol (10), Jatrowediol], the IC50 on TsTS, against mTS (setting [3]) and against CeTS (setting [3]) was more than 1000 µM in each case. Further, the remaining activity at 1000 µM at TsTS stood at 95%; at hTS it was 43%; on mTS, 80%; at CeTS, 77%. Also, the remaining activity at 100 µM on hTS was determined as 100%.
On to `COc1c(O)cc2oc(-c3ccccc3)c(O)c(=O)c2c1O` [Alnusin (12), Alnusin], for which the remaining activity at 1000 µM was more than 100% on TsTS, 30% on hTS (setting [2]), more than 100% on mTS (setting [2]) and 80% at CeTS (setting [2]). Moreover, the remaining activity at 100 µM at hTS (setting [1]) is 85%. For the same compound, the IC50 on CeTS (setting [7]) is more than 1000 µM.
In the case of `O=C1c2c(O)cccc2C([C@@H]2O[C@H](CO)[C@@H](O)[C@H](O)[C@H]2O)c2cc(CO)cc(O)c21` (stereo partly shown) [Aloin (2), Aloin], the IC50 at TsTS was more than 1000 µM; at mTS (setting [7]), more than 1000 µM; on CeTS (setting [7]) it was more than 100 µM. Besides, the remaining activity at 1000 µM at TsTS was determined as 93%; on hTS (setting [2]), 49%; at mTS (setting [2]), 95%; on CeTS (setting [2]) it was 36%. For the same compound, the remaining activity at 100 µM at hTS (setting [1]) was 94%; on CeTS (setting [1]), 83%.
Regarding `CC(C)=CCc1c(O)ccc2c1OC(c1ccccc1)CC2=O` (racemic) [(±)-7-Hydro-xy-8-C-prenyl flavanone], the IC50 against TsTS and at CeTS (setting [7]) was more than 100 µM in each case. In addition, the remaining activity at 100 µM at TsTS is 90%; at hTS (setting [1]) it was 74%; on mTS (setting [6]) it was 71%; on CeTS (setting [1]), 65%. The remaining activity at 1000 µM at TsTS was 25%; at hTS (setting [2]) it was 7%; on mTS (setting [2]) it was 2%; on CeTS (setting [2]), 3%.
